According to patent publication US20260015350A1, “AZAQUINAZOLINE PAN-KRAS INHIBITORS” (Mirati Therapeutics, Inc., priority 2022, published 2026):

Key:
[1] = test system: KRas-mediated phosphorylation of ERK in H358 cells; experiment: Inhibition of KRas-mediated phosphorylation of ERK (Cisbio HTRF pERK), H358 cells; format: cell-based; conditions: Homo sapiens, NCI-H358, HTRF pERK
In short: (§1)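 6,000 cells/well; cpd 10 uM top, 3-fold x10, 0.8% DMSO final; 3 hr incubation; Min ctrl Trametinib 0.2 uM; lysis 40 min 4° C shaking; d2 + Cryptate Ab mix, 2 hr RT; HTRF read.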

[2] = test system: KRas-mediated phosphorylation of ERK in A549 cells; experiment: Inhibition of KRas-mediated phosphorylation of ERK (Cisbio HTRF pERK), A549 cells; format: cell-based; conditions: Homo sapiens, HTRF pERK
In short: (§2)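 HTRF readout of phospho-ERK in cell lysates after 3 hrs of compound exposure. Dosing: 10 uM top, 3-fold steps, 10 doses, final DMSO 0.8%. Min control: 0.2 uM Trametinib. Lysis ran 40 mins at 4° C, and antibody detection 2 hrs at room temperature.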

[3] = test system: KRas-mediated phosphorylation of ERK in H2009 cells; experiment: Inhibition of KRas-mediated phosphorylation of ERK (Cisbio HTRF pERK), H2009 cells; format: cell-based; conditions: Homo sapiens, NCI-H2009
Protocol: Inhibition of KRas Phosphorylation of ERK (HTRF) by Exemplary Compounds of Formula (I)
Cisbio HTRF Advanced PERK Assay Catalog #64AERPEH
1. To harvest cells from flask using 0.05% Trypsin/EDTA solution. Add 10 mL of media to stop trypsinizing. Pipette the cells into a conical bottom 50 mL centrifuge tube and centrifuge 5 min×1000 rpm.
2. Re-suspend the cell pellet in media, take a cell count, and then adjust the cell density using fresh media.
3. Seed 6,000 cells into cell culture plate with 50 μL media. […]
4. Incubate cell plate overnight in a 37° C., 5% CO2 incubator.
1. Use Tecan to complete the compound addition. Compounds start from 10 uM top, 3-fold dilution, and 10 doses. The final DMSO concentration is 0.8%. Dispensed 0.2 uM Trametinib as Min control.
2. Incubate cell plate for 3 hrs in the incubator.
Detection with Cisbio pERK HTRF Kit
1. Dilute 1 volume of 4× lysis buffer with 3 volumes of deionized water. Then, add 100× the blocking reagent. Keep lysis buffer on the ice.
2. At the end of the compound treatment, flick-off the media.
3. Add 35 μL of lysis buffer per well using a Multidrop Combi. Then place on a plate agitator shaking at 300 rpm at 4° C. for 40 mins.
4. Make up the HTRF antibody buffer. For each assay plate, mix 50 μL of d2-conjugate antibody with 950 μL of detection buffer. Similarly, mix 50 μL of Cryptate antibody with 950 μL of detection buffer. Then mix the two diluted antibodies together.
5. Dispense 3.4 μL the antibody buffer to wells of an empty assay plate. Seal the plate and centrifuge plate 30 sec×1000 rpm.
6. At the end of the 4° C. lysis, centrifuge the lysate plates 3 mins×1500 rpm.
7. Use the Bravo to transfer 13.6 μL of lysate from cell culture plate to assay plate. Then incubate assay plate for 2 hrs at room temperature.
8. At the end of incubation, read plate on the Envision after centrifuging plate 30 sec×1000 rpm.

[4] = test system: KRas-mediated phosphorylation of ERK in MKN1 cells; experiment: Inhibition of KRas-mediated phosphorylation of ERK (Cisbio HTRF pERK), MKN1 cells; format: cell-based; conditions: Homo sapiens, MKN-1
In short: (§3)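 Day 1 seeding: 6,000 cells per well, RPMI/10% FBS, left overnight at 37° C. with 5% CO2. Plates then stood covered for 4 h at room temperature prior to HTRF detection of pERK.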

[5] = test system: KRas-mediated phosphorylation of ERK in H727 cells; experiment: Inhibition of KRas-mediated phosphorylation of ERK (Cisbio HTRF pERK), H727 cells; format: cell-based; conditions: Homo sapiens, NCI-H727, H727 cells; HTRF pERK
In short: as §1

[6] = biological target: T1, KRas^G12V (Homo sapiens, UniProt P01116, G12V); experiment: KRas binding assay (TR-FRET tracer displacement), KRas G12V
T1 construct: Biotinylated KRas (corresponding to amino acids 1-169, produced at Accelegan Inc.); biotin (biotinylated); purchased Accelegan Inc
T1 sequence (P01116 1-169 isoform P01116-2 G12V): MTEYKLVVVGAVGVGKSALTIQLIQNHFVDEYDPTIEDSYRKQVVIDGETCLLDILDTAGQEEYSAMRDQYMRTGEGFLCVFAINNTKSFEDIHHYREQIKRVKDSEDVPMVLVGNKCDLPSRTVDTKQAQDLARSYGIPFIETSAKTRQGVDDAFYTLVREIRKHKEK

[7] = test system: KRas-mediated phosphorylation of ERK in AsPC-1 cells; experiment: Inhibition of KRas-mediated phosphorylation of ERK (Cisbio HTRF pERK), AsPC-1 cells; format: cell-based; conditions: Homo sapiens, ASPC1, AsPC-1 cells; HTRF pERK
In short: as §1

[8] = biological target: T2, KRas^G12R (Homo sapiens, UniProt P01116, G12R); experiment: KRas binding assay (TR-FRET tracer displacement), KRas G12R
T2 construct: Biotinylated KRas (corresponding to amino acids 1-169, produced at Accelegan Inc.); biotin (biotinylated); purchased Accelegan Inc
T2 sequence (P01116 1-169 isoform P01116-2 G12R): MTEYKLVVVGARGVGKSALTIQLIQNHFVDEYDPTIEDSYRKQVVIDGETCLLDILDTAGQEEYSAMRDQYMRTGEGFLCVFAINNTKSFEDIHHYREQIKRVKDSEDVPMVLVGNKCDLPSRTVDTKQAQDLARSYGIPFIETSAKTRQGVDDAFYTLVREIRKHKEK

[9] = biological target: T3, KRas^G12D (Homo sapiens, UniProt P01116, G12D); experiment: KRas binding assay (TR-FRET tracer displacement), KRas G12D
T3 construct: Biotinylated KRas (corresponding to amino acids 1-169, produced at Accelegan Inc.); biotin (biotinylated); purchased Accelegan Inc
T3 sequence (P01116 1-169 isoform P01116-2 G12D): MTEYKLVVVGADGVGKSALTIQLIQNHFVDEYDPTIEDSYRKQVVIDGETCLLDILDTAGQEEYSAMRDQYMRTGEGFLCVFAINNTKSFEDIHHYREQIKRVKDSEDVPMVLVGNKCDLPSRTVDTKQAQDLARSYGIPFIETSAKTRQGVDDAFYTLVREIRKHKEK

[10] = test system: KRas-mediated phosphorylation of ERK in HCT116 cells; experiment: Inhibition of KRas-mediated phosphorylation of ERK (Cisbio HTRF pERK), HCT116 cells; format: cell-based; conditions: Homo sapiens, HCT-116, HTRF pERK
In short: as §2

[11] = test system: KRas-mediated phosphorylation of ERK in PSN1 cells; experiment: Inhibition of KRas-mediated phosphorylation of ERK (Cisbio HTRF pERK), PSN1 cells; format: cell-based; conditions: Homo sapiens
In short: as §3

[12] = test system: KRas-mediated phosphorylation of ERK in H460 cells; experiment: Inhibition of KRas-mediated phosphorylation of ERK (Cisbio HTRF pERK), H460 cells; format: cell-based; conditions: Homo sapiens, NCI-H460, HTRF pERK
In short: as §1

[13] = biological target: T4, KRas^G12C (Homo sapiens, UniProt P01116, G12C); experiment: KRas binding assay (TR-FRET tracer displacement), KRas G12C; conditions: TR-FRET tracer displacement, KRas G12C
T4 construct: Biotinylated KRas (corresponding to amino acids 1-169, produced at Accelegan Inc.); biotin (biotinylated); purchased Accelegan Inc
T4 sequence (P01116 1-169 isoform P01116-2 G12C): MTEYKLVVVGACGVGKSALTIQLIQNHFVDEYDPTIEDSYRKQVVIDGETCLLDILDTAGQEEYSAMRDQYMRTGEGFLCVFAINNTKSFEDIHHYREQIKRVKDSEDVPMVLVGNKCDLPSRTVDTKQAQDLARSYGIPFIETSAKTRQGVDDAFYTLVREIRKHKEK

[14] = biological target: T5, KRas^G12S (Homo sapiens, UniProt P01116, G12S); experiment: KRas binding assay (TR-FRET tracer displacement), KRas G12S; conditions: TR-FRET tracer displacement, KRas G12S
T5 construct: Biotinylated KRas (corresponding to amino acids 1-169, produced at Accelegan Inc.); biotin (biotinylated); purchased Accelegan Inc
T5 sequence (P01116 1-169 isoform P01116-2 G12S): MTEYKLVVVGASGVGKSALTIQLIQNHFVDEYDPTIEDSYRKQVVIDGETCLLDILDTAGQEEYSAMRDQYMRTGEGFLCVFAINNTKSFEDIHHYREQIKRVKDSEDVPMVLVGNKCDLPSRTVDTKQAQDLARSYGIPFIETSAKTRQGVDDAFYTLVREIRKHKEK

[15] = biological target: T6, KRas^WT (Homo sapiens, UniProt P01116); experiment: KRas binding assay (TR-FRET tracer displacement), KRas WT; conditions: TR-FRET tracer displacement, KRas WT
T6 construct: Biotinylated KRas (corresponding to amino acids 1-169, produced at Accelegan Inc.); biotin (biotinylated); purchased Accelegan Inc
T6 sequence (P01116 1-169 isoform P01116-2): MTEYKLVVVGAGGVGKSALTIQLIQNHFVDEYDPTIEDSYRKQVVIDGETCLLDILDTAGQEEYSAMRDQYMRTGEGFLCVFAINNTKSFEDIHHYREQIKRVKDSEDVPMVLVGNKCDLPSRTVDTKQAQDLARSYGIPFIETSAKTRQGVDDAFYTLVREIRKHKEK

IC50 [1] [nM] | IC50 [2] [nM] | IC50 [3] [nM] | IC50 [4] [nM] | IC50 [5] [nM] | IC50 [6] [nM] | IC50 [7] [nM] | IC50 [8] [nM] | IC50 [9] [nM] | IC50 [10] [nM] | IC50 [11] [nM] | IC50 [12] [nM] | IC50 [13] [nM] | IC50 [14] [nM] | IC50 [15] [nM] | SMILES
1 | 1 | 1 | 0.1 | 2 | < 2 | 1 | < 2 | < 2 | 2 | 80 | 1 | – | – | – | CCc1c(F)ccc2cc(O)cc(-c3ncc4c(N5CCC[C@@](C)(O)C5)nc(OC[C@@]56CCCN5C/C(=C\F)C6)nc4c3F)c12 [Example 791, (R)-1-(7-(8-ethyl-7-fluoro-3-hydroxynaphthalen-1-yl)-8-fluoro-2-(((S,Z)-2-(fluoromethylene)tetrahydro-1H-pyrrolizin-7a(5H)-yl)methoxy)pyrido[4,3-d]pyrimidin-4-yl)-3-methylpiperidin-3-ol]
1 | 3 | 1 | 0.2 | 4 | < 2 | 9 | – | < 2 | 7 | – | 4 | < 2 | < 2 | < 2 | C/C=C1\CN2CCCC2(COc2nc(N3C[C@@H]4C[C@H](C3)[C@H](O)C4)c3cnc(-c4cc(O)cc5ccc(F)c(CC)c45)c(F)c3n2)C1 (stereo partly drawn) [Example 938, (1R,5R,6R)-3-(7-(8-ethyl-7-fluoro-3-hydroxynaphthalen-1-yl)-2-(((Z)-2-ethylidenetetrahydro-1H-pyrrolizin-7a(5H)-yl)methoxy)-8-fluoropyrido[4,3-d]pyrimidin-4-yl)-3-azabicyclo[3.2.1]octan-6-ol]
1 | 2 | 1 | 0.1 | 2 | < 2 | 1 | – | < 2 | 3 | – | 2 | < 2 | < 2 | < 2 | C=C1CN2CCCC2(COc2nc(N3CCCC4(CCO4)C3)c3cnc(-c4cc(O)cc5ccc(F)c(CC)c45)c(F)c3n2)C1 (centres unmarked) [Example 941, 5-ethyl-6-fluoro-4-(8-fluoro-2-((2-methylenetetrahydro-1H-pyrrolizin-7a(5H)-yl)methoxy)-4-(1-oxa-6-azaspiro[3.5]nonan-6-yl)pyrido[4,3-d]pyrimidin-7-yl)naphthalen-2-ol]
0.4 | 1 | 1 | – | 1 | – | 2 | – | – | 1 | – | 1 | – | – | – | CCc1c(F)ccc2cc(O)cc(-c3ncc4c(N5C[C@@H]6C[C@H](C5)[C@H](O)C6)nc(OC[C@@]56CCCN5C/C(=C\F)C6)nc4c3F)c12 [Example 942, (1R,5R,6R)-3-(7-(8-ethyl-7-fluoro-3-hydroxynaphthalen-1-yl)-8-fluoro-2-(((S,Z)-2-(fluoromethylene)tetrahydro-1H-pyrrolizin-7a(5H)-yl)methoxy)pyrido[4,3-d]pyrimidin-4-yl)-3-azabicyclo[3.2.1]octan-6-ol]
1 | 6 | 1 | – | 6 | < 2 | 2 | – | < 2 | 6 | – | 3 | < 2 | < 2 | < 2 | C[C@@H]1C[C@@H]1c1c(Cl)cc(O)cc1-c1ncc2c(N3CCC[C@@](C)(O)C3)nc(OC[C@@]34CCCN3C/C(=C\F)C4)nc2c1F [Example 944, (R)-1-(7-(3-chloro-5-hydroxy-2-((1S,2R)-2-methylcyclopropyl)phenyl)-8-fluoro-2-(((S,Z)-2-(fluoromethylene)tetrahydro-1H-pyrrolizin-7a(5H)-yl)methoxy)pyrido[4,3-d]pyrimidin-4-yl)-3-methylpiperidin-3-ol]

SMILES | IC50 [1] [nM] | IC50 [2] [nM] | IC50 [3] [nM] | IC50 [4] [nM] | IC50 [5] [nM] | IC50 [6] [nM] | IC50 [7] [nM] | IC50 [8] [nM] | IC50 [9] [nM] | IC50 [10] [nM] | IC50 [11] [nM] | IC50 [12] [nM] | IC50 [13] [nM] | IC50 [14] [nM] | IC50 [15] [nM]
C[C@@H]1C[C@@H]1c1c(Cl)cc(O)cc1-c1ncc2c(N3CC4CCC(C3)N4)nc(OC[C@@]34CCCN3C/C(=C\F)C4)nc2c1F [Example 806, 3-(4-(3,8-diazabicyclo[3.2.1]octan-3-yl)-8-fluoro-2-(((S,Z)-2-(fluoromethylene)tetrahydro-1H-pyrrolizin-7a(5H)-yl)methoxy)pyrido[4,3-d]pyrimidin-7-yl)-5-chloro-4-(cis-2-methylcyclopropyl)phenol] | 43 | 139 | 29 | 19 | 364 | 4 | 2 | – | < 2 | 129 | – | 107 | 3 | 2 | 4
C[C@@H]1C[C@@H]1c1c(Cl)cc(O)cc1-c1ncc2c(N3C[C@H]4CC[C@@H](C3)N4)nc(OC[C@@]34CCCN3C/C(=C\F)C4)nc2c1F [Example 946, 3-(4-((1R,5S)-3,8-diazabicyclo[3.2.1]octan-3-yl)-8-fluoro-2-(((S,Z)-2-(fluoromethylene)tetrahydro-1H-pyrrolizin-7a(5H)-yl)methoxy)pyrido[4,3-d]pyrimidin-7-yl)-5-chloro-4-((1S,2R)-2-methylcyclopropyl)phenol] | 212 | 984 | 229 | – | 847 | – | 8 | – | – | 628 | – | 494 | – | – | –
